Measured values as given in paper PMC10123497 (RSC Advances, 2023).
Like-named read-outs stand apart in the source and are kept apart here.

How the values were obtained:
[1] = system: HepG2; assay: MTT in vitro cytotoxicity assay; conditions: for IC50: Homo sapiens, HepG2, 24 h, read-out: In vitro cytotoxicity activity IC50 ± SD; for Selectivity index (SI): (IC50 of WI-38)/(IC50 of HepG2)
[2] = system: HCT-116; assay: MTT in vitro cytotoxicity assay; conditions: for IC50: Homo sapiens, HCT-116, 24 h, read-out: In vitro cytotoxicity activity IC50 ± SD; for Selectivity index (SI): (IC50 of WI-38)/(IC50 of HCT-116)
[3] = system: MDA-MB-231; assay: MTT in vitro cytotoxicity assay; assay type: cell-based, human; conditions: for Selectivity index (SI): (IC50 of WI-38)/(IC50 of MDA-MB-231)
[4] = MTT cytotoxicity on non-tumorigenic normal cell line; assay type: cell-based; conditions: human, WI-38 cells (non-tumorigenic normal lung fibroblasts)
[5] = system: MCF-7; assay: MTT in vitro cytotoxicity assay; conditions: for Selectivity index (SI): (IC50 of WI-38)/(IC50 of MCF-7); for IC50: read-out: In vitro cytotoxicity activity IC50 ± SD
[6] = molecular target: EGFR^Wt (Homo sapiens, UniProt P00533); assay: EGFR Kinase Assay Kit; assay type: biochemical
EGFR^Wt, sequence (P00533 25-1210): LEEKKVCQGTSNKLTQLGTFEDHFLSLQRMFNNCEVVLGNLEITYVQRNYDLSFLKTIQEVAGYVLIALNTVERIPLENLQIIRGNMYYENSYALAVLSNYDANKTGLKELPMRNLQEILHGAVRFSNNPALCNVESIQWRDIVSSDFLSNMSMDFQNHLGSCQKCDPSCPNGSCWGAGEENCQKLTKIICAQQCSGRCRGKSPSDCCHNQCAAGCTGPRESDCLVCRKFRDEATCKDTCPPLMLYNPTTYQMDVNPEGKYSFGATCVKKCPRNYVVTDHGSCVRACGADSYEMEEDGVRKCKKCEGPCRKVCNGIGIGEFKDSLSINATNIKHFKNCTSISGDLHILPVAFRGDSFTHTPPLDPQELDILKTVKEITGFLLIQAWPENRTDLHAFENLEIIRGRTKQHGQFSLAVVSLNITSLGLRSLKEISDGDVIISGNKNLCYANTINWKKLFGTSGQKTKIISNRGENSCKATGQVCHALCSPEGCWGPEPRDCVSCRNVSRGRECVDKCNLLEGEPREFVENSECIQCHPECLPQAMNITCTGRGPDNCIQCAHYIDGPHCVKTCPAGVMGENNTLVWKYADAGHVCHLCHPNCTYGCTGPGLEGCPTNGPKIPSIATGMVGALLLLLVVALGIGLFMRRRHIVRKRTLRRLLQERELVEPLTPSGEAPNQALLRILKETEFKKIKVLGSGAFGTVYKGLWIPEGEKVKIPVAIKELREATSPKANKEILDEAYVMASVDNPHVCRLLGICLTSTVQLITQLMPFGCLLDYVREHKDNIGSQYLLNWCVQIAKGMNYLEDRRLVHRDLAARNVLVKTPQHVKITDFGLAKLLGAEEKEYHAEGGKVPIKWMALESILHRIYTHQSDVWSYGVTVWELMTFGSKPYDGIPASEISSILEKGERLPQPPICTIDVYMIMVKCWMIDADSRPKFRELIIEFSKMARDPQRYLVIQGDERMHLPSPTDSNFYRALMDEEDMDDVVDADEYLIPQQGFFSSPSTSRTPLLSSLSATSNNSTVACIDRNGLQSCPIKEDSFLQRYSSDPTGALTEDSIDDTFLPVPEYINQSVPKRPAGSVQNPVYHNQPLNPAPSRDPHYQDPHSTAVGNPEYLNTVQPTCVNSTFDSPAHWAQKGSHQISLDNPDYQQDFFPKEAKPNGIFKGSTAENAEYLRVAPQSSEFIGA

[7] = system: MCF-7 cells; assay: Cell cycle analysis by flow cytometry; assay type: cell-based, human; conditions: MCF-7 treated at IC50 = 3.82 μM
[8] = system: p53; assay: qRT-PCR gene expression in MCF-7; assay type: cell-based, human; conditions: MCF-7, vs untreated control = 1
[9] = molecular target: VEGFR2 (Homo sapiens, UniProt P35968); assay: biochemical
VEGFR2, sequence (P35968 20-1356): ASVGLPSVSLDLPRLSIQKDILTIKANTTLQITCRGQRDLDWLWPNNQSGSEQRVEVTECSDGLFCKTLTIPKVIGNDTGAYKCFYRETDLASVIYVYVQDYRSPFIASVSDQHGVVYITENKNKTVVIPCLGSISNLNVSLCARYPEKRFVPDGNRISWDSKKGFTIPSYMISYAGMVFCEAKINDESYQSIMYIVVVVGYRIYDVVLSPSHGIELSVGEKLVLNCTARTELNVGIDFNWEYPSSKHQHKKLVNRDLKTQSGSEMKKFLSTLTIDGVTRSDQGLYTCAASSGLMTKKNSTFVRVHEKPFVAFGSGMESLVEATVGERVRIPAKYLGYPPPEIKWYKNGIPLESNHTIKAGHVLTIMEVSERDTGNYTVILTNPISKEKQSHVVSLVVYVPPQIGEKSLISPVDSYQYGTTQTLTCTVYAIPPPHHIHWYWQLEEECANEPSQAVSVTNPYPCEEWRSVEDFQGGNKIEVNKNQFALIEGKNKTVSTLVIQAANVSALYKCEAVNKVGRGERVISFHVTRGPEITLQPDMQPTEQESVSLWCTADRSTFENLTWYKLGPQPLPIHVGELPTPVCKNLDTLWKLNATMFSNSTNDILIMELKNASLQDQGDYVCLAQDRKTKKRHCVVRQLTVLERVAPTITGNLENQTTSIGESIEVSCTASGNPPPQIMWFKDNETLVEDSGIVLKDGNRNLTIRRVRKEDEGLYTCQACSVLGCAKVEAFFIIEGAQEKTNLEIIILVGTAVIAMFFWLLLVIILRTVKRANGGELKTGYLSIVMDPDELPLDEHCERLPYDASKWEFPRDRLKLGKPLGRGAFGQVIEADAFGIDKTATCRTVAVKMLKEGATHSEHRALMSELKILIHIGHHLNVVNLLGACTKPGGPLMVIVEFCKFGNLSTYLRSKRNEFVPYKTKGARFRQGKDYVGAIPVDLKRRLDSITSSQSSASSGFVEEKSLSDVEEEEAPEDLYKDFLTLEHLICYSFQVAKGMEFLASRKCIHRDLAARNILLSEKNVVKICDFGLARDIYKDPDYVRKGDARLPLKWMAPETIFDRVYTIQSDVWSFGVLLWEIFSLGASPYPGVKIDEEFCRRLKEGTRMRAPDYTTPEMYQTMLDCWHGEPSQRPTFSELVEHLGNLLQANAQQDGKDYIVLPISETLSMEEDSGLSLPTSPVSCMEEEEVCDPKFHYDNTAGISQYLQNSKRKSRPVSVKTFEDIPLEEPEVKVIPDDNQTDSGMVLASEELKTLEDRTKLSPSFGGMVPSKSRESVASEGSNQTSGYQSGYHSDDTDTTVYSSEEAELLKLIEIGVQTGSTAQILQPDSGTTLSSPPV

[10] = system: MCF-7 cells; assay: Annexin-V/propidium iodide apoptosis assay; assay type: cell-based, human
[11] = molecular target: EGFR^(L858R) (Homo sapiens, UniProt P00533, L858R); assay: EGFR; assay type: biochemical
EGFR^(L858R), sequence (P00533 25-1210 L858R): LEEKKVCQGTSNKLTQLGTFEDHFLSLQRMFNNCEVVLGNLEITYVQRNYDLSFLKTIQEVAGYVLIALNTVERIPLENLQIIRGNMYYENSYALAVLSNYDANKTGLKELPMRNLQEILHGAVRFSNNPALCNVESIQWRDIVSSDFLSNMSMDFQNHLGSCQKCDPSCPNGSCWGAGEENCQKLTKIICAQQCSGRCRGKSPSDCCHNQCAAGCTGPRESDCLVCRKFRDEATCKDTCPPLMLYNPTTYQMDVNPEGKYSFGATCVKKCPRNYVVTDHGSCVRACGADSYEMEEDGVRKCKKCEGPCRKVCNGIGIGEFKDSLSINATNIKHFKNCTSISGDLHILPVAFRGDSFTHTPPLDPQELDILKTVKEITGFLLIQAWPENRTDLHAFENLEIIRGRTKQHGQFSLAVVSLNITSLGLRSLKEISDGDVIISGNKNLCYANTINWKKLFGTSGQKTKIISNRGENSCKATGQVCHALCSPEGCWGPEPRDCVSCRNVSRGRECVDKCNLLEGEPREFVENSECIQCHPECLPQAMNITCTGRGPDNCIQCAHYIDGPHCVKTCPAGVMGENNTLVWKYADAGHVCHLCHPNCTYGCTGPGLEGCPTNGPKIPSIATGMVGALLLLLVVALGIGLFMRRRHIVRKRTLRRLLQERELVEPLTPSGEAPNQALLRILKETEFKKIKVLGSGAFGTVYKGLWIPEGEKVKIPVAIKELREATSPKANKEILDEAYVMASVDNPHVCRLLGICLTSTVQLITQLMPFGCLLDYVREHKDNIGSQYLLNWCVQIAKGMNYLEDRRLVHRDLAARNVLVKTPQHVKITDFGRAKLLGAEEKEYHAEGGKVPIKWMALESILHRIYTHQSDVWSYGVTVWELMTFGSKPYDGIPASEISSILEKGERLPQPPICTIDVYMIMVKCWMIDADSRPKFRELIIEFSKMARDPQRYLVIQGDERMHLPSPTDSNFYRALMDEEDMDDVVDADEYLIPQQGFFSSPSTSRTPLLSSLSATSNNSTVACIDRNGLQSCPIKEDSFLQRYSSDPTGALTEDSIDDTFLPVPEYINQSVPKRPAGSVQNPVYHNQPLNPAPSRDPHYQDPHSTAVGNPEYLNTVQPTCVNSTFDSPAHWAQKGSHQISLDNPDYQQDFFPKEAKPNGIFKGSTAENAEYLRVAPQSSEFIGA

**Q.** What does the source list for `O=S(=O)(c1ccc2nc(Cl)c(Cl)nc2c1)N1CCCC1` [Compound 7, 2,3-Dichloro-6-(pyrrolidin-1-ylsulfonyl)quinoxaline]?
**A.** IC50 [1]: 48.7 ± 2.8 µM; IC50 [2]: 38.1 ± 2.2 µM

**Q.** Which results are given for `N#CC(C#N)=C1Sc2nc3ccc(S(=O)(=O)N4CCCC4)cc3nc2S1` [Compound 10a, 2-(6-(Pyrrolidin-1-ylsulfonyl)-[1,3]dithiolo[4,5-b]quinoxalin-2-ylidene)malononitrile]?
**A.** IC50 [1]: 89.7 ± 4.5 µM; IC50 [2]: 93.8 ± 4.7 µM

**Q.** Which results are given for `CCOC(=O)C(C#N)=C1Sc2nc3ccc(S(=O)(=O)N4CCCC4)cc3nc2S1` [Compound 10b, Ethyl 2-cyano-2-(6-(pyrrolidin-1-ylsulfonyl)-[1,3]dithiolo[4,5-b]quinoxalin-2-ylidene)acetate]?
**A.** IC50 [1]: 80.3 ± 4.1 µM; IC50 [2]: 87.4 ± 4.2 µM

**Q.** Which “Selectivity index (SI)” value [3] does the source give for `N#CC(C(=O)Nc1cccc(C(F)(F)F)c1)=C1Sc2nc3ccc(S(=O)(=O)N4CCCC4)cc3nc2S1` [Compound 10c, 2-Cyano-2-(6-(pyrrolidin-1-ylsulfonyl)-[1,3]dithiolo[4,5-b]quinoxalin-2-ylidene)-N-(3-(trifluoromethyl)phenyl)acetamide] here?
**A.** 8.48

**Q.** And the “Selectivity index (SI)” value [1]?
**A.** 3.82

**Q.** And the IC50 [1]?
**A.** 17 ± 1.3 µM

**Q.** And the “Selectivity index (SI)” value [2]?
**A.** 7.01

**Q.** What about the IC50 [2] of the same compound?
**A.** 9.26 ± 0.8 µM

**Q.** What about the IC50 at 24 h [4] of the same compound?
**A.** 65.1 ± 3.5 µM

**Q.** And the “Selectivity index (SI)” value [5]?
**A.** 10.61

**Q.** What about the IC50 ([5]; MCF-7, MTT, 24 h) of the same compound?
**A.** 6.13 ± 0.4 µM

**Q.** Which results are given for `COc1ccc(C=NNC(=O)C(C#N)=C2Sc3nc4ccc(S(=O)(=O)N5CCCC5)cc4nc3S2)cc1` [Compound 10d, 2-Cyano-N′-(4-methoxybenzylidene)-2-(6-(pyrrolidin-1-ylsulfonyl)-[1,3]dithiolo[4,5-b]quinoxalin-2-ylidene)acetohydrazide]?
**A.** IC50 [1]: 32.1 ± 2.2 µM; IC50 [2]: 18.4 ± 1.4 µM

**Q.** For `N#CC(C(=O)NN=C1C(=O)Nc2ccccc21)=C1Sc2nc3ccc(S(=O)(=O)N4CCCC4)cc3nc2S1` [Compound 10e, 2-Cyano-N′-(2-oxoindolin-3-ylidene)-2-(6-(pyrrolidin-1-ylsulfonyl)-[1,3]dithiolo[4,5-b]quinoxalin-2-ylidene)acetohydrazide], which IC50 [1] is on record?
**A.** 41.9 ± 2.5 µM

**Q.** And the IC50 [2]?
**A.** 22 ± 1.7 µM

**Q.** For `CCOC(=O)C(C(C)=O)=C1Sc2nc3ccc(S(=O)(=O)N4CCCC4)cc3nc2S1` [Compound 10f, Ethyl 3-oxo-2-(6-(pyrrolidin-1-ylsulfonyl)-[1,3]dithiolo[4,5-b]quinoxalin-2-ylidene)butanoate], which “Selectivity index (SI)” value [3] is on record?
**A.** 4.41

**Q.** What about the “Selectivity index (SI)” value [1] of the same compound?
**A.** 1.76

**Q.** What about the IC50 [1] of the same compound?
**A.** 26.8 ± 1.9 µM

**Q.** What about the “Selectivity index (SI)” value [2] of the same compound?
**A.** 3.69

**Q.** What about the IC50 [2] of the same compound?
**A.** 12.5 ± 1 µM

**Q.** And the IC50 at 24 h [4]?
**A.** 46.2 ± 2.4 µM

**Q.** What about the “Selectivity index (SI)” value [5] of the same compound?
**A.** 5.27

**Q.** And the IC50 ([5]; MCF-7, MTT, 24 h)?
**A.** 8.78 ± 0.6 µM

**Q.** Which results are given for `O=C1CCCCC1=C1Sc2nc3ccc(S(=O)(=O)N4CCCC4)cc3nc2S1` [Compound 12, 2-(6-(Pyrrolidin-1-ylsulfonyl)-[1,3]dithiolo[4,5-b]quinoxalin-2-ylidene)cyclohexan-1-one]?
**A.** Selectivity index (SI) [3]: 36.12; Fold increase of potency as compared with doxorubicin ([3]; MDA-MB-231): 1.41 fold; Selectivity index (SI) [1]: 9.89; IC50 [1]: 8.25 ± 0.6 µM; Selectivity index (SI) [2]: 10.26; IC50 [2]: 7.95 ± 0.5 µM; IC50 ([6]; Enzyme inhibitory activity IC50 EGFR^Wt): 0.19 ± 0.009 µM; inhibition at 10 µM ([6]; read-out: Inhibitory% EGFR^Wt): 85.4%; Cell cycle distribution %G2/M ([7]; untreated control 12.55): 7.32%; Cell cycle distribution %G0-G1 ([7]; untreated control 57.66): 48.16%; RT-PCR results fold change p53 (pro-apoptotic) [8]: 4.97 fold; IC50 ([9]; Enzyme inhibitory activity IC50 VEGFR2): 0.42 ± 0.021 µM; inhibition at 10 µM ([9]; read-out: Inhibitory% VEGFR2): 78.9%; IC50 at 24 h [4]: 81.6 ± 4.1 µM; Increase in early apoptosis compared to the control ([10]; MCF-7): 54.59 folds; Increase in late apoptosis compared to the control ([10]; MCF-7): 79.33 folds; Apoptosis Late ([10]; MCF-7, at IC50 for 24 h, control 0.15): 11.9%; Apoptosis Early ([10]; MCF-7, at IC50 for 24 h, control 0.44): 24.02%; Necrosis ([10]; MCF-7, at IC50 for 24 h, control 1.25): 6.16%; Apoptosis Total ([10]; MCF-7, at IC50 for 24 h, control 1.84): 42.08%; Selectivity index (SI) [5]: 21.37; IC50 ([5]; Homo sapiens, MCF7, 24 h): 3.82 ± 0.2 µM; Fold increase of potency as compared with doxorubicin ([5]; MCF-7): 1.09 fold; IC50 ([11]; Enzyme inhibitory activity IC50 EGFR^(L858R)): 0.121 ± 0.007 µM; inhibition at 10 µM ([11]; read-out: Inhibitory% EGFR^(L858R)): 87%

**Q.** For `CC1=NNC(=O)C1=C1Sc2nc3ccc(S(=O)(=O)N4CCCC4)cc3nc2S1` [Compound 14, 5-Methyl-4-(6-(pyrrolidin-1-ylsulfonyl)-[1,3]dithiolo[4,5-b]quinoxalin-2-ylidene)-2,4-dihydro-3H-pyrazol-3-one], which IC50 [1] is on record?
**A.** 69 ± 3.9 µM

**Q.** What about the IC50 [2] of the same compound?
**A.** 71.2 ± 3.8 µM

**Q.** With `CC1=NN(c2ccccc2)C(=O)C1=C1Sc2nc3ccc(S(=O)(=O)N4CCCC4)cc3nc2S1` [Compound 16, 5-Methyl-2-phenyl-4-(6-(pyrrolidin-1-ylsulfonyl)-[1,3]dithiolo[4,5-b]quinoxalin-2-ylidene)-2,4-dihydro-3H-pyrazol-3-one] as the compound, how does the IC50 [1] read?
**A.** > 100 µM

**Q.** What about the IC50 [2] of the same compound?
**A.** > 100 µM

**Q.** Which IC50 [1] does the source give for `O=C1NC(=O)C(=C2Sc3nc4ccc(S(=O)(=O)N5CCCC5)cc4nc3S2)C(=O)N1` [Compound 18, 5-(6-(Pyrrolidin-1-ylsulfonyl)-[1,3]dithiolo[4,5-b]quinoxalin-2-ylidene)pyrimidine-2,4,6(1H,3H,5H)-trione] here?
**A.** 83.4 ± 4.3 µM

**Q.** What about the IC50 [2] of the same compound?
**A.** > 100 µM

**Q.** What about the IC50 ([5]; Homo sapiens, MCF7, 24 h) of the same compound?
**A.** 62.8 ± 3.4 µM

**Q.** Which IC50 [1] does the source give for `COc1cccc2c1C(=O)c1c(O)c3c(c(O)c1C2=O)C[C@@](O)(C(=O)CO)C[C@@H]3O[C@H]1C[C@H](N)[C@H](O)[C@H](C)O1` [Doxorubicin, doxorubicin, reference compound] here?
**A.** 4.5 ± 0.2 µM
